ChEMBL document CHEMBL1130561, “Batrachotoxin binding site antagonists” (Bioorg Med Chem Lett, 1997)

Columns and labels:
[1] = biological target: Sodium channel alpha subunits; brain (Types I, II, III) (Rattus norvegicus, UniProt P04775+P04774+P08104); test: Inhibition of [3H]batrachotoxin binding to rat brain neuronal membranes; format: cell membranes, Membrane
[2] = biological target: Sodium channel alpha subunits; brain (Types I, II, III) (Homo sapiens, UniProt P35498+Q99250+Q9NY46); test: Antagonism of batrachotoxin-mediated sodium ion uptake into cultured neuroblastoma cells; format: functional

Row | Compound | IC50 [1] | IC50 [2]
1 | COC[C@H](CCOC(=O)c1ccccc1)C[C@@H](O)[C@@]12CCCC3C[C@@](OC)(CCC31C)O2 | 10 µM | 5 µM
2 | CC12CC[C@]3(OCc4cccc(Br)c4)CC1CCC[C@@]2(CO)O3 | 10 µM | 80 µM
3 | CO[C@]12CCC3(C)C(CCC[C@@]3([C@H](O)CCCN(C)C)O1)C2 | 130 µM | 200 µM
4 | CO[C@]12CCC3(C)C(CCC[C@@]3([C@H](O)C[C@@H](CCOC(=O)c3ccccc3)CN(C)C)O1)C2 | 3.6 µM | 0.5 µM
5 | CN(C)CCC[C@@H](O)[C@@]12CCCC3C[C@@](OCc4ccccc4)(CCC31C)O2 | 4.5 µM | 4 µM
6 | CO[C@]12CCC3(C)C(CCC[C@@]3(CO)O1)C2 | 2000 µM | 1000 µM
7 | CCCCNc1ccc(C(=O)OCCN(C)C)cc1 [TETRACAINE] | 6 µM | –
8 | COc1ccc(C(=O)O[C@H]2CC[C@@]3(C)[C@@H]4CC[C@H]5[C@]6(O)C[C@H](O)[C@@]7(O)[C@@H](CN8C[C@@H](C)CC[C@H]8[C@@]7(C)O)[C@]6(O)C[C@@]53O[C@]24O)cc1OC [VERATRIDINE] | 22 µM | –
